Measurements taken from US20240344020A1, “CULTURE MEDIUM FOR LUNG CANCER EPITHELIAL CELLS, CULTURE METHOD, AND APPLICATION THEREOF” (PRECEDO PHARMACEUTICALS CO., LTD, priority 2021, published 2024).

Tested on: primary lung cancer cells (No. B5)
Assay: Effects of different factors added to basic medium BM on proliferation of primary lung cancer cells (cell count after 12 days)
Format: cell-based, human
Conditions: factor added alone to BM at the concentrations of Table 3; 12 days culture; FIGS. 1A-D
Experimental: Extracellular matrix gel (Matrigel®) (manufactured by BD Biosciences) was diluted with serum-free DMEM/F12 medium at a ratio of 1:100 to prepare an extracellular matrix diluent. The extracellular matrix diluent was added to a 48-well culture plate with 500 μl/well to completely cover the bottom of the wells of the culture plate. The culture plate was let stand for 1 hour in a 37° C. incubator. After 1 hour, the extracellular matrix diluent was removed to provide a Matrigel-coated plate.
Preparation of basic medium (abbreviated as BM): BM was prepared by adding 0.2 vol. % of Primocin (purchased from Invivogen, with a concentration of 50 mg/ml) to the commercial DMEM/F-12 medium to provide a final concentration of 100 μg/ml.
Next, different kinds and concentrations of additive factors (Table 3) were added to the basic medium (BM), so as to prepare culture mediums for lung cancer epithelial cells containing different additive components.
The culture mediums with different components were added at a volume of 500 μl/well to 48-well plates which were coated with extracellular matrix gel (Matrigel). Lung cancer cells (No. B5) isolated from lung cancer tissues according to the same method as described in Example 1 were inoculated at a cell density of 2×10^4 cells/cm^2 in the above-mentioned 48-well culture plates which were coated with Matrigel. After surface disinfection, the plates were placed in a 37° C., 5% CO2 incubator (purchased from Thermo Fisher), and the same number of freshly isolated lung cancer tumor cells (No. B5) were cultured under different medium formulations. The culture mediums were replaced every 4 days after the start of culture. After 12 days of culture, cell counts were performed. The basic medium (BM) without addition of any additive was used as a control. The results were shown in FIGS. 1A-D. The ordinate in the figures represents the ratio of the number of cells obtained after culture in different mediums to the number of cells obtained after culture in basic medium BM.

CN1C(=O)C(c2c(F)cccc2F)N(C)c2nc(Nc3ccc(S(N)(=O)=O)cc3)ncc21 (stereo not shown) [Compound 1, 4-((7-(2,6-difluorophenyl)-5,8-dimethyl-6-oxo-5,6,7,8-tetrahydropteridin-2-yl)amino)benzsulfamide]
effect on cell proliferation (ratio of cell number to that in basic medium BM): certain promoting effects on cell proliferation

Cc1cccc(-c2nn(C(=S)Nc3ccccc3)cc2-c2ccnc3ccccc23)n1 [Compound A83-01, A83-01, reference compound]
effect on cell proliferation (ratio of cell number to that in basic medium BM): certain promoting effects on cell proliferation

C[C@@H](N)[C@H]1CC[C@H](C(=O)Nc2ccncc2)CC1 [Compound Y27632, Y27632, reference compound]
effect on cell proliferation (ratio of cell number to that in basic medium BM): certain promoting effects on cell proliferation

hepatocyte growth factor: growth factor from Sino Biological Inc.
effect on cell proliferation (ratio of cell number to that in basic medium BM): certain promoting effects on cell proliferation

insulin-like growth factor 1: growth factor from Sino Biological Inc.
effect on cell proliferation (ratio of cell number to that in basic medium BM): certain promoting effects on cell proliferation

interleukin 6: cytokine from Sino Biological Inc.
effect on cell proliferation (ratio of cell number to that in basic medium BM): certain promoting effects on cell proliferation

B1: fibroblast growth factor 7: growth factor from Sino Biological Inc. (protein, UniProt P21781 32-194, looked up)
Fibroblast growth factor 7: CNDMTPEQMATNVNCSSPERHTRSYDYMEGGDIRVRRLFCRTQWYLRIDKRGKVKGTQEMKNNYNIMEIRTVAVGIVAIKGVESEFYLAMNKEGKLYAKKECNEDCNFKELILENHYNTYASAKWTHNGGEMFVALNQKGIPVRGKKTKKEQKTAHFLPMAIT
effect on cell proliferation (ratio of cell number to that in basic medium BM): certain promoting effects on cell proliferation
